# Measured values from PMC7997574, “Lead Optimization of Benzoxazolone Carboxamides as Orally Bioavailable and CNS Penetrant Acid Ceramidase Inhibitors” (Journal of Medicinal Chemistry, 2020).
# Assays:
# [1] = In vitro mouse plasma protein binding (equilibrium dialysis); type: in vitro ADME; conditions: read-out: Fp, u (%) plasma fraction unbounded
# Protocol: Studies were performed by the DMPK Group at Shanghai ChemPartner Co., Ltd., using the equilibrium dialysis method. Values are the mean of two technical replicates.
# [2] = target: T1, AC (Homo sapiens, UniProt Q13510); assay: EC50 determination in primary fibroblast cells from Krabbe's disease patients; type: cell-based; set-up: expressed in transfected cells
# T1 sequence (Q13510 22-395): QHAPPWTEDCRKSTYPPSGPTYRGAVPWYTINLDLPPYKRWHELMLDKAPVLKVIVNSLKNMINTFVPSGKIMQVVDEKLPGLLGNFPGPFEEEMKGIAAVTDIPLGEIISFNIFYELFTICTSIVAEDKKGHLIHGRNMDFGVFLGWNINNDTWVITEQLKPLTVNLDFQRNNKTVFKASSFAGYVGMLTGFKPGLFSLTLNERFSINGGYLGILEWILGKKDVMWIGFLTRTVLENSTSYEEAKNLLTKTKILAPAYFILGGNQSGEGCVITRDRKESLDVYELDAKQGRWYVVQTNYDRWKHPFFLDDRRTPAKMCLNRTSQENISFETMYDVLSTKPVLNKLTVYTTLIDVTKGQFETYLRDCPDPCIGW
# Protocol: Cells were plated in a 6-well plate. After 24 h, cells were treated with 22m at different concentrations for 2 h. Next, cells were washed with PBS, and cell pellets were washed, collected, and stored at −80 °C. Finally, cell pellets were lysed, and hAC activity in cell lysates was analyzed using the same biochemical fluorogenic assay as described for compound IC50 determination. Using this methodology, EC50 was determined to be 0.41 ± 0.1 μM. The EC50 value is a mean of two independent experiments, each performed in two technical replicates.
# [3] = target: T2, monoacylglycerol lipase (MAGL) (Homo sapiens, UniProt Q99685); assay: In vitro hMAGL colorimetric assay; type: biochemical; conditions: 1 and 10 μM
# T2 construct: purchased Cayman Scientific item; 705192
# T2 sequence (Q99685 1-303): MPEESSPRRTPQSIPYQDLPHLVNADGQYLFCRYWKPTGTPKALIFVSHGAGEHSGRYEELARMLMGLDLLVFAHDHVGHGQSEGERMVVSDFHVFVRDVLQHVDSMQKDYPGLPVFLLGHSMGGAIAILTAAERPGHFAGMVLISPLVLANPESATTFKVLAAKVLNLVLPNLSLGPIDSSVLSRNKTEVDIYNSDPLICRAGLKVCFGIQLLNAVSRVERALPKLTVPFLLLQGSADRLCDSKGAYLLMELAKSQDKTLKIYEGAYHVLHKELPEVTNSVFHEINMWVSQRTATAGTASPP
# Protocol: The colorimetric assay to measure hMAGL activity was performed using an assay kit provided by Cayman Scientific (item. 705192), according to the manufacturer’s instructions. Briefly, in vitro activity was measured in 96-well plates, and DMSO was used as solvent. 10 μL of DMSO (100% initial activity wells: 100% IA) or compounds at two concentrations (1 and 10 μM) were preincubated for 5 min at rt with 150 μL of diluted assay buffer (10 mM Tris HCl, pH 7.2, containing 1 mM EDTA) containing hMAGL. In blank wells, 160 μL of the diluted assay buffer and 10 μL of DMSO were added. The reactions were initiated by adding 10 μL of MAGL substrate to all the wells, and plates were incubated for 10 min at rt. Absorbance values were measured at 405 nm, and percent inhibition was calculated by the following method: 100 – (Inhibitor/100% IA) × 100. The reported percentages of inhibition are the mean of at least three independent experiments performed in three technical replicates.
# [4] = target: T3, GCase (Homo sapiens, UniProt P04062); assay: In vitro hGCase assay; type: biochemical; conditions: 1 and 10 μM
# T3 construct: 5 nM purified human full-length GCase enzyme; made in house
# T3 sequence (P04062 40-536): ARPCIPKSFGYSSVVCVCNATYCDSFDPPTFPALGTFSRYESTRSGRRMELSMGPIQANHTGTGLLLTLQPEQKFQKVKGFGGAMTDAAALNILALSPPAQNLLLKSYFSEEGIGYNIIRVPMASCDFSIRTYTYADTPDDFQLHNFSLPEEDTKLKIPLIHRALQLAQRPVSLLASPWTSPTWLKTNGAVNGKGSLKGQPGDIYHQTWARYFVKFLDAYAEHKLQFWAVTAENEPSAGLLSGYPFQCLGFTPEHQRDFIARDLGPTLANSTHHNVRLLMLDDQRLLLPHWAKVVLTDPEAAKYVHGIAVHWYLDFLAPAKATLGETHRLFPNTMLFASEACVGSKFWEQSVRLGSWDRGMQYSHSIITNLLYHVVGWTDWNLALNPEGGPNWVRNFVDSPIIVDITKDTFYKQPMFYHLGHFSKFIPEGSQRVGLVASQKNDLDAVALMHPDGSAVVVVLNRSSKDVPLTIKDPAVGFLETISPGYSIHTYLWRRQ
# Protocol: hGCase activity measurement was conducted using the fluorogenic substrate 4-methylumbelliferyl-β-D-[…] hydrate (4-MUG, Merck) at 1 mM and 5 nM purified human full-length GCase enzyme and 50 nM of its natural activator SapC (both GCase and SapC were purified in house) in a buffer containing 50 mM citric acid, 174 mM K2HPO4, 15 μM phosphatidylserine, and 0.32 mM Triton X-100 at pH 4.7 in a final volume of 50 μL. The reaction mixtures were incubated for 15 min at rt and stopped by the addition of 150 μL of 1 M glycine at pH 12.5. The cleavage of 4-MUG was monitored by a plate reader at excitation/emission wavelengths of 365/440 nm. The average hGCase activity was calculated from two independent experiments, each performed in two technical replicates.
smiles,measurement,setting,value
"CC(C)CNC(=O)n1c(=O)oc2cc(C3CCN(C)CC3)ccc21 [22m, N-Isobutyl-6-(1-methyl-4-piperidyl)-2-oxo-1,3-benzoxazole-3-carboxamide]",fraction unbound,[1],0.138
same,EC50,"[2]; primary fibroblast cells from Krabbe's disease patients, 2 h incubation",410 ± 100 nM
same,EC50,"[2]; primary fibroblast cells of Krabbe's patients, Figure S1",400 ± 100 nM
same,effect on MAGL,[3],no effect
same,effect on activity of GCase,[4],no effect
